This test deals with BDF1 mice, P388 leukemia ip, median survival T/C. Briefly: NCI In Vivo Anticancer Drug Screen. Data for tumor model P388 Leukemia (intraperitoneal) in B6D2F1 (BDF1) mice. As to conditions: endpoint: median survival time, higher = longer survival. Summed up:
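In tumour-bearing mice, survival after compound treatment is set against the vehicle group and given as a quotient.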

Setting [1] is: dose: 50.0 mg/kg/injection, schedule: Q01DX009 (ip), vehicle: saline with Tween-80.
The mark [2] stands for this setting: dose: 100.0 mg/kg/injection, schedule: Q01DX009 (ip), vehicle: saline with Tween-80.
Where [3] appears, read: dose: 200.0 mg/kg/injection, schedule: Q01DX009 (ip), vehicle: saline with Tween-80.
[4] abbreviates: dose: 100.0 mg/kg/injection, schedule: Q04DX003 (ip), vehicle: saline with Tween-80.
Setting [5] is: dose: 200.0 mg/kg/injection, schedule: Q04DX003 (ip), vehicle: saline with Tween-80.
Where [6] appears, read: dose: 400.0 mg/kg/injection, schedule: Q01DX009 (ip), vehicle: saline with Tween-80.
Setting [7] is: dose: 50.0 mg/kg/injection, schedule: Q04DX003 (ip), vehicle: saline with Tween-80.
The mark [8] stands for this setting: dose: 100.0 mg/kg/injection, schedule: Q01DX009 (ip), vehicle: Klucel (hydroxypropylcellulose) (HPC).
[9] abbreviates: dose: 200.0 mg/kg/injection, schedule: Q01DX009 (ip), vehicle: Klucel (hydroxypropylcellulose) (HPC).

Values joined by “and” are separate entries in the source; they are usually repeats but may differ in a detail not shown here. Identical values can stand only once. Toxic doses and inconclusive results are not listed.

On to `CCN(CC)CCOC(=O)CSC1C2CC3C(C2)C31` (stereo not drawn), for which the T/C runs as follows: (dose: 50.0 mg/kg/injection, schedule: Q01DX009 (ip), vehicle: suspension in saline) 106 % of control; (dose: 100.0 mg/kg/injection, schedule: Q01DX001 (ip), vehicle: suspension in saline) 93 % of control; (dose: 100.0 mg/kg/injection, schedule: Q01DX009 (ip), vehicle: suspension in saline) 107 % of control; (dose: 200.0 mg/kg/injection, schedule: Q01DX001 (ip), vehicle: suspension in saline) 101 % of control; (dose: 200.0 mg/kg/injection, schedule: Q01DX009 (ip), vehicle: suspension in saline) 109 % of control; (dose: 400.0 mg/kg/injection, schedule: Q01DX001 (ip), vehicle: suspension in saline) 102 % of control. The T/C was 111 % of control (dose: 400.0 mg/kg/injection, schedule: Q01DX009 (ip), vehicle: suspension in saline) and 105 % of control (dose: 600.0 mg/kg/injection, schedule: Q01DX001 (ip), vehicle: suspension in saline).

Consider `CCCCOCN(COCCCC)c1cccc([N+](=O)[O-])c1`, for which the T/C is 102 % of control under setting [1], 100 % of control under setting [2] and 111 % of control under setting [3].

Regarding `N#Cc1cnc2n(c1=N)CCCCC2`, where the note is “dose: 100.0 mg/kg/injection, schedule: Q04DX003 (ip), vehicle: Klucel (hydroxypropylcellulose) (HPC)”, the T/C is 94 % of control.

For the compound `CCCCCCCCCCCC#N`, the T/C is 95 % of control (dose: 100.0 mg/kg/injection, schedule: Q01DX009 (ip), vehicle: saline); 95 % of control (dose: 200.0 mg/kg/injection, schedule: Q01DX009 (ip), vehicle: saline); 100 % of control (dose: 400.0 mg/kg/injection, schedule: Q01DX009 (ip), vehicle: saline).

`OC/C(=N/Nc1ccc2ccccc2n1)c1ccccc1`: the T/C runs as follows: under setting [1], 114 % of control; under setting [2], 117 % of control; under setting [4], 94 % of control; under setting [3], 115 % of control; under setting [5], 102 % of control; under setting [6], 88 % of control. Further, the T/C (dose: 400.0 mg/kg/injection, schedule: Q04DX003 (ip), vehicle: saline with Tween-80) is 101 % of control.

Consider `CO/C=C1\Cc2cc(OC)c(OC)cc2C1=O`, for which the T/C runs as follows: under setting [2], 90 % of control; under setting [3], 100 % of control; under setting [6], 109 % of control.

On to `O=C1c2ccccc2C2N1CCCN2C(=O)c1sc2ccccc2c1Cl` (stereo not drawn), for which the T/C was 88 % of control under setting [1], 86 % of control under setting [2] and 94 % of control under setting [3].

`C1CC[N-]CC1.C1CC[N-]CC1.C1CC[N-]CC1.C1CC[N-]CC1.N#C[S-].N#C[S-].[Ni]`: the T/C is 100 % of control (dose: 5.0 mg/kg/injection, schedule: Q01DX009 (ip), vehicle: saline with Tween-80); 100 % of control (dose: 10.0 mg/kg/injection, schedule: Q01DX009 (ip), vehicle: saline with Tween-80); 108 % of control (dose: 20.0 mg/kg/injection, schedule: Q01DX009 (ip), vehicle: saline with Tween-80).

Take `COP(=O)(OC)OC=C(Cl)Cl`: the T/C (dose: 6.25 mg/kg/injection, schedule: Q01DX009 (ip), vehicle: saline with Tween-80) is 100 % of control; the T/C (dose: 12.5 mg/kg/injection, schedule: Q01DX009 (ip), vehicle: saline with Tween-80) is 103 % of control; the T/C (dose: 25.0 mg/kg/injection, schedule: Q01DX009 (ip), vehicle: saline with Tween-80) was 102 % of control.

For the compound `CC1(CNC(=O)C(=O)NCC2(C)CO2)CO1` (stereo not drawn), the T/C under setting [7] was 158 % of control; the T/C under setting [2] is 154 % of control; the T/C under setting [4] is 191 % of control; the T/C (dose: 132.0 mg/kg/injection, schedule: Q04DX003 (ip), vehicle: saline with Tween-80) is 208 % of control; the T/C under setting [5] was 183 % of control; the T/C (dose: 300.0 mg/kg/injection, schedule: Q04DX003 (ip), vehicle: saline with Tween-80) is 233 % of control.

Turning to `n1nc(Nc2nn[nH]n2)n[nH]1`, the T/C (dose: 50.0 mg/kg/injection, schedule: Q01DX009 (ip), vehicle: Klucel (hydroxypropylcellulose) (HPC)) was 90 % of control; the T/C under setting [8] is 107 % of control; the T/C under setting [9] is 110 % of control.

On to `Nc1ncnc2nc(-c3ccc(Br)cc3)[nH]c12`, for which the T/C is, setting by setting: (dose: 100.0 mg/kg/injection, schedule: Q01DX001 (ip), vehicle: saline with Tween-80) 94 % of control; (dose: 200.0 mg/kg/injection, schedule: Q01DX001 (ip), vehicle: saline with Tween-80) 106 % of control.

Turning to `C[n+]1ccc(Nc2ccc(NC(=O)c3ccc([N+](=O)[O-])cc3)cc2)cc1`, the T/C reads like this: (dose: 6.25 mg/kg/injection, schedule: Q01DX009 (ip), vehicle: water) 108 % of control; (dose: 12.5 mg/kg/injection, schedule: Q01DX009 (ip), vehicle: water) 96 % of control; (dose: 12.5 mg/kg/injection, schedule: Q04DX003 (ip), vehicle: water) 100 % of control; (dose: 25.0 mg/kg/injection, schedule: Q01DX009 (ip), vehicle: water) 90 % of control; (dose: 25.0 mg/kg/injection, schedule: Q04DX003 (ip), vehicle: water) 98 % of control and 100 % of control (2×); (dose: 50.0 mg/kg/injection, schedule: Q01DX009 (ip), vehicle: water) 97 % of control. Besides, the T/C runs as follows: (dose: 100.0 mg/kg/injection, schedule: Q01DX009 (ip), vehicle: water) 107 % of control; (dose: 150.0 mg/kg/injection, schedule: Q04DX003 (ip), vehicle: water) 91 % of control.

For `C=C(C(=O)OC1CC2CCC(C1)N2C)c1ccccc1` (stereo not drawn), the T/C (dose: 1.25 mg/kg/injection, schedule: Q01DX009 (ip), vehicle: saline) is 100 % of control; the T/C (dose: 2.5 mg/kg/injection, schedule: Q01DX009 (ip), vehicle: saline) was 100 % of control; the T/C (dose: 5.0 mg/kg/injection, schedule: Q01DX009 (ip), vehicle: saline) is 100 % of control; the T/C (dose: 10.0 mg/kg/injection, schedule: Q01DX009 (ip), vehicle: saline) is 90 % of control.

For the compound `COc1c(C)cc(Br)c2c1C(CCN(C)S(=O)(=O)Cc1ccccc1)CCC2` (stereo not drawn), the T/C is, setting by setting: under setting [8], 100 % of control; under setting [9], 110 % of control; (dose: 400.0 mg/kg/injection, schedule: Q01DX009 (ip), vehicle: Klucel (hydroxypropylcellulose) (HPC)) 110 % of control.

As for `COc1ccccc1OC(=O)Nc1ccc(C)c([N+](=O)[O-])c1`, the T/C was 100 % of control (dose: 25.0 mg/kg/injection, schedule: Q04DX003 (ip), vehicle: saline with Tween-80); 104 % of control under setting [7]; 100 % of control under setting [4].

For the compound `Nc1nc(N)c2cc(S(=O)(=O)c3cccc(C(F)(F)F)c3)ccc2n1`, the T/C by setting is: under setting [1], 95 % of control; under setting [2], 111 % of control; under setting [3], 120 % of control.

With `CCCCCN(C)/N=N/c1nc[nH]c1C(N)=O`, the T/C is 100 % of control under setting [3]; 90 % of control (dose: 264.0 mg/kg/injection, schedule: Q04DX003 (ip), vehicle: Klucel (hydroxypropylcellulose) (HPC)); 86 % of control (dose: 400.0 mg/kg/injection, schedule: Q04DX003 (ip), vehicle: Klucel (hydroxypropylcellulose) (HPC)).

For `CC1CC(N)=NC1C(=O)NCCC#N` (stereo not drawn), the T/C by setting is: under setting [2], 98 % of control; under setting [6], 98 % of control.

Turning to `Cc1ccc(S(=O)(=O)Oc2ccc(-c3ccc(Br)cc3)cc2)cc1`, the T/C by setting is: under setting [1], 96 % of control; under setting [2], 96 % of control; under setting [3], 101 % of control; under setting [6], 92 % of control.

Take `C[C@]12CCC(=O)C=C1CC[C@@H]1[C@@H]2CC[C@@]2(C)[C@H]1CC[C@]2(C)O`: the T/C (dose: 100.0 mg/kg/injection, schedule: Q01DX009 (sc), vehicle: steriod suspending solution) is 104 % of control; the T/C (dose: 100.0 mg/kg/injection, schedule: Q04DX003 (sc), vehicle: steriod suspending solution) is 105 % of control; the T/C (dose: 200.0 mg/kg/injection, schedule: Q01DX009 (sc), vehicle: steriod suspending solution) is 95 % of control; the T/C (dose: 200.0 mg/kg/injection, schedule: Q04DX003 (sc), vehicle: steriod suspending solution) was 90 % of control; the T/C (dose: 400.0 mg/kg/injection, schedule: Q04DX003 (sc), vehicle: steriod suspending solution) is 115 % of control.

As for `Fc1ccc(C2CN3C(=N2)C=Cc2ccccc23)cc1` (stereo not drawn), the T/C reads like this: under setting [1], 101 % of control; under setting [2], 99 % of control; under setting [3], 117 % of control.

Source of the values: PubChem BioAssay AID328 (DTP/NCI, 2004).
